These results are taken from ChEMBL document CHEMBL3044877, “Synthesis and crystal structure of chalcones as well as on cytotoxicity and antibacterial properties” (Med Chem Res, 2012).

Molecules are shown by their SMILES. ≈ marks a conversion by molar mass, not a printed value. Bounds are passed on as bounds.

One assay deals with HT-29. Put plainly: Cytotoxicity against Homo sapiens (human) HT-29 cells after 72 hr by MTT assay. The class given is functional, cell-based. Background: Tetrazolium dyes change colour on reduction, which living cells bring about.
The next assay deals with SGC-7901. In words: Cytotoxicity against Homo sapiens (human) SGC7901 cells after 72 hr by MTT assay. The class given is functional, cell-based.
The test system of another assay is Enterococcus faecium. Put plainly: Antibacterial activity against multidrug-resistant Enterococcus faecium 609205. The class given is functional.
The subject of a further assay is Enterococcus faecalis. Put plainly: Antibacterial activity against multidrug-resistant Enterococcus faecalis 609230. The class given is functional.
Assay [1] deals with Staphylococcus epidermidis. Put plainly: Antibacterial activity against multidrug-resistant Staphylococcus epidermidis 619083. The class given is functional.
Assay [2] deals with Staphylococcus epidermidis. In words: Antibacterial activity against multidrug-resistant Staphylococcus epidermidis 620206. The class given is functional.
In assay [3] the test system is Staphylococcus aureus. In words: Antibacterial activity against multidrug-resistant Staphylococcus aureus 701219. The class given is functional.
Assay [4] has as its system Staphylococcus aureus. In words: Antibacterial activity against multidrug-resistant Staphylococcus aureus 701230. The class given is functional.
The subject of assay [5] is Staphylococcus aureus. In words: Antibacterial activity against multidrug-resistant Staphylococcus aureus ATCC 25923. The class given is functional.
In assay [6] the test system is Pseudomonas aeruginosa. In words: Antibacterial activity against multidrug-resistant Pseudomonas aeruginosa 710218. The class given is functional.
For assay [7], the system named is Pseudomonas aeruginosa. In words: Antibacterial activity against multidrug-resistant Pseudomonas aeruginosa 630266. The class given is functional.
Assay [8] has as its system Acinetobacter baumannii. In words: Antibacterial activity against multidrug-resistant Acinetobacter baumannii B-8 303211. The class given is functional.
The subject of assay [9] is Acinetobacter baumannii. Put plainly: Antibacterial activity against multidrug-resistant Acinetobacter baumannii B-5 302234. The class given is functional.
Assay [10] concerns Klebsiella pneumoniae. Put plainly: Antibacterial activity against multidrug-resistant Klebsiella pneumoniae 626238. The class given is functional.
Assay [11] concerns Klebsiella pneumoniae. In words: Antibacterial activity against multidrug-resistant Klebsiella pneumoniae 626511. The class given is functional.
Assay [12] relates to Escherichia coli. In words: Antibacterial activity against multidrug-resistant Escherichia coli 629247. The class given is functional.
Assay [13] relates to Escherichia coli. In words: Antibacterial activity against multidrug-resistant Escherichia coli 629119. The class given is functional.
The subject of assay [14] is Staphylococcus aureus. Put plainly: Antibacterial activity against Staphylococcus aureus after 24 hr. The class given is functional.
Setting [15] is: Homo sapiens, HT-29, 72 h, read-out: IC50.
Setting [16] is: Homo sapiens, SGC-7901, 72 h, read-out: IC50.

Usually IC50 stands for the point on the concentration scale where inhibition reaches its midpoint. Usually MIC stands for the least concentration at which growth counts as inhibited. Higher therefore signals weaker potency.

For `COc1ccc(C(=O)/C=C/c2ccccc2C(F)(F)F)cc1`, the IC50 in the assay with HT-29 (setting [15]) came to 36.4 µM.

Take `COc1ccc(C(=O)/C=C/c2ccc(Cl)cc2Cl)cc1`: the concentration for half-maximal inhibition (IC50) in the assay with SGC-7901 (setting [16]) worked out at 12.6 µM; in the assay with HT-29 (setting [15]), 18.9 µM.

With `COc1ccc(C(=O)/C=C/c2ccc(F)cc2F)cc1`, the values for the IC50 with SGC-7901 (setting [16]) and with HT-29 (setting [15]) were 48.4 µM and 11.1 µM, respectively.

`COc1ccc(/C=C/C(=O)c2ccccc2O)c(OC)c1`: the IC50 entry in the assay with SGC-7901 (sgc-7901) and with HT-29 (ht-29) was “Not Active” in each case.

For the compound `COc1ccc(/C=C/C(=O)c2ccccc2)c(OC)c1`, the IC50 with HT-29 (setting [15]) came out at 131 µM.

As to `O=C(/C=C/c1ccccc1C(F)(F)F)c1ccccc1`, the values for the IC50 in the assay with SGC-7901 (setting [16]) and in the assay on HT-29 (setting [15]) were 40.3 µM and 42.9 µM, respectively.

As for `COc1ccc(C(=O)/C=C/c2ccccc2Cl)cc1OC`, the IC50 in the assay on SGC-7901 (setting [16]) was found to be 24.7 µM; in the assay with HT-29 (setting [15]) it was 15.5 µM.

As to `COc1ccc(C(=O)/C=C/c2cccc(OC)c2OC)cc1`, the IC50 in the assay with SGC-7901 (setting [16]) stood at 13.1 µM; with HT-29 (setting [15]) it was 41.7 µM.

Regarding `COc1ccc(C(=O)/C=C/c2ccccc2Br)cc1OC`, the half-inhibitory concentration (IC50) turned out to be 21.4 µM with SGC-7901 (setting [16]) and 14 µM in the assay on HT-29 (setting [15]).

Consider `COc1ccc(/C=C/C(=O)c2cc(F)cc(F)c2)c(OC)c1`, for which the half-inhibitory concentration (IC50) in the assay with SGC-7901 (setting [16]) is 55.5 µM; with HT-29 (ht-29) it was “Not Active”.

As for `COc1ccc(C(=O)/C=C/c2ccccc2OC)cc1`, in the assay with SGC-7901 (sgc-7901), the IC50 result is reported as “Not Active”.

For the compound `COc1ccccc1/C=C/C(=O)c1cc(F)cc(F)c1`, the IC50 with SGC-7901 (setting [16]) was 75.4 µM; with HT-29 (setting [15]) it was 53.2 µM.

For `Nc1ccc(C(=O)/C=C/c2ccccc2C(F)(F)F)cc1`, the half-inhibitory concentration (IC50) with SGC-7901 (setting [16]) was 15.7 µM.

For `COc1ccc(C(=O)/C=C/c2ccccc2Br)cc1`, the IC50 in the assay with SGC-7901 (setting [16]) was determined as 20 µM; in the assay on HT-29 (setting [15]), 25.7 µM.

Take `COc1ccc(C(=O)/C=C/c2ccc(Cl)cc2Cl)cc1OC`: the IC50 was 60.5 µM with SGC-7901 (setting [16]) and 18.7 µM with HT-29 (setting [15]).

For `COc1ccc(C(=O)/C=C/c2cccc(OC)c2OC)cc1OC`, the IC50 amounted to 70.7 µM with SGC-7901 (setting [16]) and 35.9 µM in the assay on HT-29 (setting [15]).

Take `Nc1ccc(C(=O)/C=C/c2ccc(Cl)cc2Cl)cc1`: the IC50 was determined as 87.7 µM in the assay with SGC-7901 (setting [16]) and 40 µM with HT-29 (setting [15]).

Turning to `O=C(/C=C/c1ccc(Cl)cc1Cl)c1ccccc1O`, the IC50 in the assay on HT-29 (setting [15]) stood at 42.4 µM.

With `CN(C)c1ccc(/C=C/C(=O)c2cccc(N)c2)cc1`, the IC50 entry in the assay with HT-29 (ht-29) was “Not Active”.

Take `CN(C)c1ccc(/C=C/C(=O)c2cc(F)cc(F)c2)cc1`: the IC50 result in the assay on SGC-7901 (sgc-7901) and with HT-29 (ht-29) was “Not Active” in each case.

In the case of `Nc1ccc(C(=O)/C=C/c2ccccc2Cl)cc1`, the IC50 with SGC-7901 (setting [16]) was 11.2 µM; in the assay with HT-29 (setting [15]) it was 26.2 µM.

With `COc1ccc(/C=C/C(=O)c2ccc(N)cc2)c(Cl)c1`, the MIC with Enterococcus faecium is more than 1000 µg/mL; with Enterococcus faecalis it was 537 µg/mL (≈ 1870 µM); in assay [1], more than 1000 µg/mL; in assay [2], more than 1000 µg/mL; against Staphylococcus aureus [3], more than 1000 µg/mL; against Staphylococcus aureus [4], 537 µg/mL (≈ 1870 µM). The same compound showed a minimum inhibitory concentration (MIC) with Staphylococcus aureus [5] of 537 µg/mL (≈ 1870 µM). The IC50 with SGC-7901 (setting [16]) amounted to 20.2 µM; in the assay with HT-29 (setting [15]), 55.7 µM.

On to `COc1ccc(/C=C/C(=O)c2cccc(N)c2)c(Cl)c1`, for which the IC50 with SGC-7901 (setting [16]) was 53.8 µM; with HT-29 (setting [15]), 42.8 µM.

As for `COc1ccc(C(=O)/C=C/c2ccc(OC)cc2Cl)cc1`, the IC50 amounted to 19.2 µM with SGC-7901 (setting [16]) and 49.1 µM in the assay on HT-29 (setting [15]).

Regarding `COc1ccc(/C=C/C(=O)c2ccccc2O)c(Cl)c1`, the IC50 with SGC-7901 (setting [16]) is 62.1 µM; in the assay on HT-29 (setting [15]), 59.5 µM.

Consider `COc1ccc(/C=C/C(=O)c2cc(F)cc(F)c2)cc1`, for which the IC50 result in the assay with SGC-7901 (sgc-7901) was “Not Active”; in the assay with HT-29 (setting [15]), 101 µM.

On to `Nc1ccc(C(=O)/C=C/c2ccccc2F)cc1`, for which the half-maximal inhibitory concentration (IC50) with SGC-7901 (setting [16]) came out at 7.44 µM; in the assay on HT-29 (setting [15]), 47.8 µM.

On to `COc1ccc(C(=O)/C=C/c2ccc(N(C)C)cc2)cc1OC`, for which the IC50 result was “Not Active” in the assay with SGC-7901 (sgc-7901) and 49.8 µM with HT-29 (setting [15]).

Consider `COc1ccc(C(=O)/C=C/c2ccc(O)cc2)cc1`, for which the MIC was more than 1000 µg/mL against Pseudomonas aeruginosa [6]; more than 1000 µg/mL in the assay with Pseudomonas aeruginosa [7]; 548 µg/mL (≈ 2160 µM) in the assay with Acinetobacter baumannii [8]; 548 µg/mL (≈ 2160 µM) in the assay on Acinetobacter baumannii [9]; more than 1000 µg/mL against Klebsiella pneumoniae [10]; more than 1000 µg/mL against Klebsiella pneumoniae [11]. Moreover, the MIC is 548 µg/mL (≈ 2160 µM) with Escherichia coli [12]; 548 µg/mL (≈ 2160 µM) against Escherichia coli [13]; more than 1000 µg/mL against Enterococcus faecium; 81 µg/mL (≈ 319 µM) with Enterococcus faecalis; 20 µg/mL (≈ 78.7 µM) in assay [1]; 81 µg/mL (≈ 319 µM) in assay [2]. In addition, the MIC with Staphylococcus aureus [3] is 81 µg/mL (≈ 319 µM); with Staphylococcus aureus [4], 81 µg/mL (≈ 319 µM); against Staphylococcus aureus [5] it was 40 µg/mL (≈ 157 µM). Further, the IC50 in the assay with SGC-7901 (setting [16]) turned out to be 14.7 µM; in the assay with HT-29 (setting [15]) it was 18.6 µM.

In the case of `COc1ccc(/C=C/C(=O)c2ccc(OC)c(OC)c2)cc1`, the IC50 stood at 102 µM in the assay on SGC-7901 (setting [16]) and 54.6 µM in the assay on HT-29 (setting [15]).

Take `COc1ccc(/C=C/C(=O)c2ccc(N)cc2)c(OC)c1`: the IC50 entry in the assay with SGC-7901 (sgc-7901) and in the assay on HT-29 (ht-29) was “Not Active” in each case.

`COc1ccc(/C=C/C(=O)c2ccc(OC)c(OC)c2)c(OC)c1`: the IC50 result in the assay on SGC-7901 (sgc-7901) is “Not Active”; with HT-29 (setting [15]), 65.5 µM.

As to `COc1ccc(C(=O)/C=C/c2ccccc2F)cc1`, the IC50 in the assay on SGC-7901 (setting [16]) came out at 21.2 µM; in the assay with HT-29 (setting [15]), 18.9 µM.

Consider `O=C(/C=C/c1ccc(O)cc1)c1ccccc1` [4-HYDROXYCHALCONE], for which the minimum inhibitory concentration (MIC) against Staphylococcus aureus [14] was 125 µg/mL (≈ 557 µM); against Pseudomonas aeruginosa [6], 158 µg/mL (≈ 705 µM); in the assay on Pseudomonas aeruginosa [7], more than 1000 µg/mL; against Acinetobacter baumannii [8], 158 µg/mL (≈ 705 µM); against Acinetobacter baumannii [9] it was 158 µg/mL (≈ 705 µM); with Klebsiella pneumoniae [10] it was more than 1000 µg/mL. In addition, the MIC was more than 1000 µg/mL against Klebsiella pneumoniae [11]; 158 µg/mL (≈ 705 µM) against Escherichia coli [12]; 158 µg/mL (≈ 705 µM) with Escherichia coli [13]; 315 µg/mL (≈ 1400 µM) with Enterococcus faecium; 158 µg/mL (≈ 705 µM) against Enterococcus faecalis; 158 µg/mL (≈ 705 µM) in assay [1]. Further, the MIC (in assay [2]; in the assay on Staphylococcus aureus [3]; in the assay with Staphylococcus aureus [4]; in the assay with Staphylococcus aureus [5]) was 158 µg/mL (≈ 705 µM) in each case. Besides, the half-maximal inhibitory concentration (IC50) in the assay on SGC-7901 (setting [16]) turned out to be 13.7 µM; in the assay on HT-29 (setting [15]) it was 24.6 µM.

In the case of `O=c1[nH]cc(F)c(=O)[nH]1` [FLUOROURACIL], the 50% inhibitory concentration (IC50) in the assay on SGC-7901 (Homo sapiens, SGC-7901, 72 h) was determined as 29.2 µM; in the assay with HT-29 (setting [15]) it was 9.72 µM.

`C[C@H]1COc2c(N3CCN(C)CC3)c(F)cc3c(=O)c(C(=O)O)cn1c23.C[C@H]1COc2c(N3CCN(C)CC3)c(F)cc3c(=O)c(C(=O)O)cn1c23.O` [LEVOFLOXACIN]: the MIC with Pseudomonas aeruginosa [6] was more than 1000 µg/mL; with Pseudomonas aeruginosa [7], 325 µg/mL; with Acinetobacter baumannii [8], 12.5 µg/mL; with Acinetobacter baumannii [9], more than 1000 µg/mL; in the assay with Klebsiella pneumoniae [10], more than 1000 µg/mL; against Klebsiella pneumoniae [11], 125 µg/mL. In addition, the MIC against Escherichia coli [12] was 25 µg/mL; in the assay with Escherichia coli [13], more than 1000 µg/mL; against Enterococcus faecium, more than 1000 µg/mL; against Enterococcus faecalis it was more than 1000 µg/mL; in assay [1] it was 125 µg/mL; in assay [2] it was more than 1000 µg/mL. The MIC with Staphylococcus aureus [3] is 100 µg/mL; with Staphylococcus aureus [4], 12.5 µg/mL; against Staphylococcus aureus [5] it was 12.5 µg/mL.
